Columns and labels:
human endometrium = assay: Six month endometriosis study: ultrasound measurements of endometrial thickness; format: in vivo; conditions: for Endometrium (mm), 1st dose: 1st dose visit; for Endometrium (mm), screening: screening (baseline)
Excerpt: Women in the study were closely monitored for changes in the structure of the endometrium. […] Comparisons were made to both baseline and visit one ultrasound measurements of endometrial thickness. […]

[1] = test system: Cynomolgus monkey endometrial epithelium, uterus stroma and breast; assay: TUNEL apoptosis in cynomolgus monkey tissue; format: in vivo, Cynomolgus monkeys (Macaca fascicularis); conditions: week 36, percent apoptotic cells
Description: Apoptosis was assessed in tissue from the same animals on slides by the terminal deoxynucleotidyl transferase mediated dUTP-biotin nick end labeling (TUNEL) technique.

[2] = Urinary progesterone levels (luteal phase) in cynomolgus monkeys; format: in vivo, Cynomolgus monkeys (Macaca fascicularis); conditions: n=14 per group; CDB-4124 or RU-486 oral 1.0 mg/kg/day for 36 weeks; Lupron IM once per month
Description: Cynomolgus monkeys (Macaca fascicularis) (n=14) were treated orally for 36 weeks with CDB-4124 or RU-486 at 1.0 mg/kg/day or with placebo (control). Another group (n=14) received Lupron® IM once per month. Urinary progesterone levels were measured for each animal for one month during the middle of the study (weeks 14-17) and for the last month of the study (weeks 33-36).

[3] = Serum corticosterone in rats; conditions: CDB-4124 10 or 20 mg/kg, RU 486 10 mg/kg, progesterone 10 mg/kg
[4] = test system: pre-menopausal adult women diagnosed with endometriosis; assay: Six month endometriosis study: pain diaries and pain intensity surveys; format: in vivo, human; conditions: for pain free days, percent: 180 day treatment period
Description: Pain reduction also occurred more rapidly than with the active control, Lucrin®. The response of pain to treatment in this study was analyzed in two ways. Patients in the study maintained daily pain diaries to record the severity and frequency of pain. In addition, at each office visit, patients filled out endometriosis symptom surveys that included a questionnaire that evaluated intensity of pain on a bad day on a scale of 0-10 with 10 being the greatest intensity. […] This decrease in duration of pain was statistically better (p=0.0012) than the 117.8 (74%; standard deviation 51.4 days) pain free days achieved with Lucrin n. […] Patients on CDB-4124 12.5 mg and 25 mg doses had 115.9 (66%; standard deviation 69.2 days) and 133.6 (75%; standard deviation 27.4 days) pain free days, respectively. […] The 25 mg and 12.5 mg doses of CDB-4124 were not statistically different from Lucrin®. […] The intensity of pain was asked by the question: “On a scale of 1-10, with 0 being no pain and 10 being extreme pain, how intense was your pain on a bad day?” The mean scores for intensity of pain at baseline were 6.3 for the CDB-4124 groups and 6.1 for the Lucrin® group. […] At month three all four active treatment groups had satistically significant reduction in pain compared with baseline, with the following scores: 3.7 (p=0.03) for 12.5 mg CDB-4124, 3.2 (p=0.03) for 25 mg CDB-4124, 1.6 (p=0.015) for 50 mg CDB-4124 and 1.5 (p=0.016) for Lucrin®. These dose related reductions continued until month six when the values for pain intensity were 2.0 (p=0.008), 2.8 (p=0.023), 0.6 (p=0.004) and 0.7 (p=0.016), respectively. Two months after stopping treatment pain returned and was of similar intensity in all four treatment groups.

[5] = test system: Cynomolgus monkey endometrial epithelia, uterus stroma and breast; assay: BrdU incorporation, tissue proliferation in cynomolgus monkeys; format: in vivo, Cynomolgus monkeys (Macaca fascicularis); conditions: week 36, % cells positive for incorporation of BrdU, three animals per group
Description: At week 36, three animals from each group of Example 6 were injected within 24 hours of sacrifice with the thymidine analog bromodeoxyuridine (BrdU), a marker of proliferating cells and their progeny, to assess tissue proliferation. Full thickness uterine sections were stained and examined microscopically for evidence of proliferation in terms of the % cells positive for incorporation of BrdU: […]

[6] = Six month endometriosis study: estrogen concentrations and biomarkers of bone resorption; conditions: women
Description: Thirty-nine pre-menopausal adult women diagnosed with endometriosis were the subject of a six month study of Proellex™ (CDB-4124) in the treatment of endometriosis. The study included three dose levels of CDB-4124 as well as a positive control arm. The positive control was Lucrin®, a GnRH agonist, commonly used for the treatment of endometriosis (also known as Lupron®). CDB-4124 was administered in a double blinded fashion as a daily oral capsule at dosages of 12.5mg/day (n=2), 25mg/day (n=3) and 50mg/day (n=3). Another group (n=4) were injected with a slow release formulation of Lucrin® once per month as a positive control.

Serum cortisol in rats = format: in vivo, rat
Description: These higher levels were in the range of 3-4 ug/dl (30-40 ng/ml).

## COCC(=O)[C@@]1(OC(C)=O)CC[C@H]2[C@@H]3CCC4=CC(=O)CCC4=C3[C@@H](c3ccc(N(C)C)cc3)C[C@@]21C [CDB-4124, 21-methoxy-17α-acetoxy-11β-(4 N,N-dimethylaminophenyl)-19-norpregna-4,9-diene-3,20-dione]
Human endometrium; 12.5 mg dose (n=4)
  women exhibiting thickened endometrium after three months: two
Human endometrium; 12.5 mg
  Endometrium (mm), 1st dose: 8.0 mm
  Endometrium (mm), 3 months: 20.33 mm
  Endometrium (mm), screening: 7.5 mm
Human endometrium; 25 mg dose (n=4)
  women exhibiting thickened endometrium after three months: One
Human endometrium; 25 mg
  Endometrium (mm), 1st dose: 11.7 mm
  Endometrium (mm), 3 months: 19.6 mm
  Endometrium (mm), screening: 8.4 mm
Human endometrium; 50 mg dose (n=3)
  women exhibiting thickened endometrium after three months: none
Human endometrium; 50 mg
  Endometrium (mm), 1st dose: 10.8 mm
  Endometrium (mm), 3 months: 7.7 mm
  Endometrium (mm), screening: 8.0 mm
[1]
  Breast Apo %: 2.6 ± 0.9%
  Uterus epithelium Apo %: 0.5 ± 0.2%
  Uterus stroma Apo %: 0.5 ± 0.1%
[2]
  Decrease in luteal phase progesterone (number of animals): 8
  No decrease in luteal phase progesterone (number of animals): 6
[3]
  differences in serum corticosterone between groups: No differences
[4]; baseline
  mean score for intensity of pain on a bad day (scale 0-10): 6.3
[4]; month six, 12.5 mg/day
  score for intensity of pain on a bad day (scale 0-10): 2.0
[4]; month six, 25 mg/day
  score for intensity of pain on a bad day (scale 0-10): 2.8
[4]; month six, 50 mg/day
  score for intensity of pain on a bad day (scale 0-10): 0.6
[4]; month three, 12.5 mg/day
  score for intensity of pain on a bad day (scale 0-10): 3.7
[4]; month three, 25 mg/day
  score for intensity of pain on a bad day (scale 0-10): 3.2
[4]; month three, 50 mg/day
  score for intensity of pain on a bad day (scale 0-10): 1.6
[4]; women, 12.5 mg/day oral
  pain free days over the 180 day treatment period: 115.9 days
  pain free days, percent: 66%
[4]; women, 25 mg/day oral
  pain free days over the 180 day treatment period: 133.6 days
  pain free days, percent: 75%
[4]; women, 50 mg/day oral
  days of pain over the first three months: less than 1 day
  pain free days over the 180 day treatment period: 170 days
  pain free days, percent: 96%
[5]
  Breast Brdu-%: 1.9 ± 0.7%
  Uterus epithelium Brdu-%: 2.1 ± 2.2%
  Uterus stroma Brdu-%: 1.1 ± 0.25%
[6]; all doses of CDB-4124 (12.5, 25, 50 mg/day)
  estrogen concentrations (mean): > 40 pg/mL
[6]; three and six months of treatment
  biomarkers of bone resorption compared with baseline: no significant changes
Serum cortisol in rats; 10 mg/kg, 21 days of chronic dosing
  levels of serum cortisol versus control group: significantly higher
Serum cortisol in rats; FIG. 2
  effect of increasing doses on serum cortisol: dose-dependent

Source: patent US20090118253A1, “COMPOSITIONS AND METHODS FOR TREATING DYSFUNCTIONAL UTERINE BLEEDING” (REPROS THERAPEUTICS INC., priority 2007, published 2009)
